Source: patent US12281095B2, “Pesticidally active diazine-amide compounds” (SYNGENTA CROP PROTECTION AG, priority 2019, dated 2025)

Columns and labels:
Assay type in all cases: in vivo
[1] = tested on: Diabrotica balteata (Corn Root Worm); assay: Example B1: Diabrotica balteata (Corn Root Worm), sprayed maize sprouts; conditions: 96 h, application rate of 200 ppm, L2 larvae, 4 days after infestation, read-out: control in at least one of the two categories (mortality or growth inhibition)
Experimental: Example B1: Diabrotica balteata (Corn Root Worm)
Maize sprouts placed onto an agar layer in 24-well microtiter plates were treated with aqueous test solutions prepared from 10′000 ppm DMSO stock solutions by spraying. After drying, the plates were infested with L2 larvae (6 to 10 per well). The samples were assessed for mortality and growth inhibition in comparison to untreated samples 4 days after infestation.

[2] = tested on: Frankliniella occidentalis (Western Flower Thrips); assay: Example B3: Frankliniella occidentalis (Western Flower Thrips): Feeding/Contact Activity; conditions: 168 h, application rate of 200 ppm, population of mixed ages, 7 days after infestation
Experimental: Example B3: Frankliniella occidentalis (Western Flower Thrips): Feeding/Contact Activity
Sunflower leaf discs were placed on agar in 24-well microtiter plates and sprayed with aqueous test solutions prepared from […] stock solutions. After drying the leaf discs were infested with a Frankliniella population of mixed ages. The samples were assessed for mortality 7 days after infestation.

[3] = tested on: Myzus persicae (Green Peach Aphid); assay: Example B8: Myzus persicae (Green Peach Aphid): Intrinsic Activity; conditions: 120 h, test rate of 12 ppm, sucrose solution, 5 days after infestation
Description: Example B8: Myzus persicae (Green Peach Aphid): Intrinsic Activity
Test compounds prepared from 10′000 ppm DMSO stock solutions were applied by pipette into 24-well microtiter plates and mixed with sucrose solution. The plates were closed with a stretched Parafilm. A plastic stencil with 24 holes was placed onto the plate and infested pea seedlings were placed directly on the Parafilm. The infested plate was closed with a gel blotting paper and another plastic stencil and then turned upside down. The samples were assessed for mortality 5 days after infestation.

[4] = tested on: Plutella xylostella (Diamond Back Moth); assay: Example B5: Plutella xylostella (Diamond Back Moth), artificial diet, 24-well; conditions: 192 h, application rate of 200 ppm, eggs, 8 days after infestation, read-out: control in at least one of the two categories (mortality or growth inhibition)
Experimental: Example B5: Plutella xylostella (Diamond Back Moth)
24-well microtiter plates with artificial diet were treated with aqueous test solutions prepared from 10′000 ppm DMSO stock solutions by pipetting. After drying, Plutella eggs were pipetted through a plastic stencil onto a gel blotting paper and the plate was closed with it. The samples were assessed for mortality and growth inhibition in comparison to untreated samples 8 days after infestation.

[5] = tested on: Euschistus heros (Neotropical Brown Stink Bug); assay: Example B2: Euschistus heros (Neotropical Brown Stink Bug), sprayed soybean leaves; conditions: 120 h, application rate of 200 ppm, N2 nymphs, 5 days after infestation, read-out: control in at least one of the two categories (mortality or growth inhibition)
Experimental: Example B2: Euschistus heros (Neotropical Brown Stink Bug)
Soybean leaves on agar in 24-well microtiter plates were sprayed with aqueous test solutions prepared from 10′000 ppm DMSO stock solutions. After drying the leaves were infested with N2 nymphs. The samples were assessed for mortality and growth inhibition in comparison to untreated samples 5 days after infestation.

[6] = tested on: Spodoptera littoralis (Egyptian Cotton Leaf Worm); assay: Example B9: Spodoptera littoralis (Egyptian Cotton Leaf Worm), sprayed cotton leaf discs; conditions: foliar, 72 h, application rate of 200 ppm, L1 larvae, 3 days after infestation, read-out: control in at least one of the three categories (mortality, anti-feedant or growth inhibition)
[7] = tested on: Chilo suppressalis (Striped Rice Stemborer); assay: Example B4: Chilo suppressalis (Striped Rice Stemborer), artificial diet; conditions: 144 h, application rate of 200 ppm, L2 larvae, 6 days after infestation, read-out: control in at least one of the three categories (mortality, anti-feedant or growth inhibition)
How it was run: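 Artificial diet was treated with aqueous dilutions made from 10'000 ppm DMSO stocks, dried, then infested with L2 larvae at 6–8 per well. Mortality, antifeedant effect and growth inhibition were assessed against untreated samples 6 days after infestation.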

[8] = tested on: Plutella xylostella (Diamondback Moth); assay: Example B13: Plutella xylostella (Diamondback Moth), artificial diet, 96-well; conditions: 216 h, application rate of 500 ppm, eggs/L1 larvae, 9 days after infestation
Experimental: Example B13: Plutella xylostella (Diamondback Moth)
96-well microtiter plates containing artificial diet were treated with aqueous test solutions, prepared from 10′000 ppm DMSO stock solutions, by a liquid handling robot. After drying, eggs (˜30 per well) were infested onto a netted lid which was suspended above the diet. The eggs hatch and L1 larvae move down to the diet. The samples were assessed for mortality 9 days after infestation.

[9] = tested on: Tetranychus urticae (Two-Spotted Spider Mite); assay: Example B11: Tetranychus urticae (Two-Spotted Spider Mite), sprayed bean leaf discs; conditions: foliar, 192 h
Experimental: Example B11: Tetranychus urticae (Two-Spotted Spider Mite)
Bean leaf discs on agar in 24-well microtiter plates were sprayed with aqueous test solutions prepared from 10′000 ppm DMSO stock solutions. After drying the leaf discs were infested with a mite population of mixed ages. The samples were assessed for mortality on mixed population (mobile stages) 8 days after infestation.

[10] = tested on: Myzus persicae (Green Peach Aphid); assay: Example B6: Myzus persicae (Green Peach Aphid): Feeding/Contact Activity; conditions: 144 h, application rate of 200 ppm, aphid population of mixed ages, 6 days after infestation
Experimental: Example B6: Myzus persicae (Green Peach Aphid): Feeding/Contact Activity
Sunflower leaf discs were placed onto agar in a 24-well microtiter plate and sprayed with aqueous test solutions prepared from 10′000 ppm DMSO stock solutions. After drying, the leaf discs were infested with an aphid population of mixed ages. The samples were assessed for mortality 6 days after infestation.

CC(NC(=O)c1cc(C(F)(F)F)cc(C(C)(C)C#N)c1)c1nccnc1-c1ncc(OCC(F)F)cn1 (centres unmarked) [P48, 3-(1-cyano-1-methyl-ethyl)-N-[1-[3-[5-(2,2-difluoroeth-oxy)pyrimidin-2-yl]pyrazin-2-yl]ethyl]-5-(trifluoro-methyl)benzamide]
≥ 80%: percent control (mortality or growth inhibition) at 200 ppm [1] | mortality at 200 ppm [2] | mortality at 12 ppm [3] | percent control (mortality or growth inhibition) at 200 ppm [4] | percent control (mortality or growth inhibition) at 200 ppm [5] | percent control (mortality, anti-feedant effect or growth inhibition) at 200 ppm [6] | percent control (mortality, anti-feedant effect or growth inhibition) at 200 ppm [7]

CC(NC(=O)c1cc(OC(F)F)cc(C2(C#N)CC2)c1)c1nccnc1-c1ccc(C#N)cn1 (centres unmarked) [P44, 3-(1-cyanocyclopropyl)-N-[1-[3-(5-cyano-2-pyridyl)pyrazin-2-yl]ethyl]-5-(difluorometh-oxy)benzamide]
≥ 80%: percent control (mortality or growth inhibition) at 200 ppm [1] | mortality at 200 ppm [2] | mortality at 12 ppm [3] | percent control (mortality or growth inhibition) at 200 ppm [4] | percent control (mortality, anti-feedant effect or growth inhibition) at 200 ppm [6] | percent control (mortality, anti-feedant effect or growth inhibition) at 200 ppm [7]

CC(NC(=O)c1cc(C(F)(F)F)nc(C2(C#N)CC2)c1)c1nccnc1-c1ccc(OCC(F)F)cn1 (centres unmarked) [P22, 2-(1-cyanocyclopropyl)-N-[1-[3-[5-(2,2-difluoroethoxy)-2-pyridyl]pyrazin-2-yl]ethyl]-6-(trifluoromethyl)pyridine-4-carboxamide]
≥ 80%: percent control (mortality or growth inhibition) at 200 ppm [1] | mortality at 500 ppm [8] | percent control (mortality or growth inhibition) at 200 ppm [4] | percent control (mortality, anti-feedant effect or growth inhibition) at 200 ppm [6] | percent control (mortality, anti-feedant effect or growth inhibition) at 200 ppm [7] | mortality at 200 ppm [9]

CC(NC(=O)c1cc(C(F)(F)F)cc(C2(C#N)CC2)c1)c1nccnc1-c1ncc(OCC(F)F)cn1 (centres unmarked) [P49, 3-(1-cyanocyclopropyl)-N-[1-[3-[5-(2,2-difluoroethoxy)pyrimidin-2-yl]pyrazin-2-yl]ethyl]-5-(trifluoromethyl)benzamide]
≥ 80%: mortality at 200 ppm [10] | percent control (mortality or growth inhibition) at 200 ppm [1] | mortality at 12 ppm [3] | percent control (mortality or growth inhibition) at 200 ppm [4] | percent control (mortality or growth inhibition) at 200 ppm [5] | percent control (mortality, anti-feedant effect or growth inhibition) at 200 ppm [6] | percent control (mortality, anti-feedant effect or growth inhibition) at 200 ppm [7]
